# Data taken from patent EP4417602A1, “SUBSTITUTED PYRAZOLE CARBOXAMIDES, SALTS THEREOF AND THEIR USE AS HERBICIDALLY ACTIVE SUBSTANCES” (Bayer AG, priority 2023, dated 2024).
# Key:
# ECHCG = test: A. Herbicidal pre-emergence action on harmful plants (Tables A); format: in vivo, Echinochloa crus-galli; details: visual grading after ca. 3 weeks vs untreated controls, 100% = plants have died off, 0% = as control plants
# In short: (§1)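 Values are visual percent damage relative to untreated controls, scored ca. 3 weeks after the compound was sprayed on the covering soil of sown pots (sandy loam) at rates up to 1280 g/ha, formulated as WP or EC with 0.5% additive.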
# LOLRI [1] = test: as above; format: in vivo, Lolium rigidum; details: visual grading after ca. 3 weeks vs untreated controls, 100% = plants have died off, 0% = as control plants
# In short: as §1
# MATIN [2] = test: as above; format: in vivo, Matricaria inodora; details: visual grading after ca. 3 weeks vs untreated controls, 100% = plants have died off, 0% = as control plants
# In short: as §1
# STEME = test: as above; format: in vivo, Stellaria media; details: visual grading after ca. 3 weeks vs untreated controls, 100% = plants have died off, 0% = as control plants
# In short: as §1
# POAAN = test: as above; format: in vivo, Poa annua
# In short: as §1
# DIGSA [3] = test: as above; format: in vivo, Digitaria sanguinalis
# In short: as §1
# DIGSA [4] = test: C. Herbicidal pre-emergence action, weed and crop plants (Tables C); format: in vivo, Digitaria sanguinalis
# Excerpt: (§2) Seeds of mono- and dicotyledonous weed plants and crop plants were sown, in plastic or organic planting pots, in sandy loam and covered with soil. The compounds according to the invention, formulated in the form of wettable powders (WP) or as emulsifiable concentrates (EC), were applied to the surface of the covering soil as aqueous suspension or emulsion, with the addition of 0.5% of an additive, at an application rate of 6001 of water/ha (converted). Following treatment, the pots were placed in a greenhouse and kept under optimum growth conditions for the test plants. The visual grading of the damage to the test plants was carried out after ca. 3 weeks in comparison to untreated controls (herbicidal effect in percent (%): 100% effect = plants have died off, 0% effect = as control plants). Tables C1 to C12 below show the effects of selected compounds of the general formula (I) according to table 1 on various harmful plants and an application rate corresponding to 320 g/ha or below obtained by the experimental procedure mentioned above. Table C1: pre-emergence activity at 320g/ha against KCHSC in %
# BRSNW = test: D. Pre-emergence effects on crop plants (Tables D); format: in vivo, Brassica napus; details: crop plant
# In short: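 Seeds sown in sandy loam and covered; WP or EC formulations sprayed onto the soil surface as aqueous suspension/emulsion with 0.5% additive, at 320 g/ha or below. Greenhouse-grown; visual damage scored after ca. 3 weeks against untreated controls (0% = as control, 100% = plants dead).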
# ZEAMX = test: F. Post-emergence effects on crop plants (Tables F); format: in vivo, Zea mays; details: crop plant
# In short: (§3)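 Plants were grown in sandy loam in a greenhouse and sprayed post-emergence at the single-leaf stage, 2–3 weeks after sowing. Visual damage was scored after ca. 3 weeks against untreated controls (0% = as control, 100% = dead).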
# TRZAS = test: as above; format: in vivo, Triticum aestivum; details: crop plant
# In short: as §3
# GLXMA = test: as above; format: in vivo, Glycine max; details: crop plant
# In short: as §3
# SETVI [5] = test: A. Herbicidal pre-emergence action on harmful plants (Tables A); format: in vivo, Setaria viridis; details: visual grading after ca. 3 weeks vs untreated controls, 100% = plants have died off, 0% = as control plants
# In short: as §1
# LOLRI [6] = test: C. Herbicidal pre-emergence action, weed and crop plants (Tables C); format: in vivo, Lolium rigidum; details: application rate 320 g/ha; Table C7a
# Excerpt: as §2
# MATIN [7] = test: as above; format: in vivo, Matricaria inodora; details: application rate 320 g/ha; Table C8
# Excerpt: as §2
# SETVI [8] = test: as above; format: in vivo, Setaria viridis; details: application rate 320 g/ha; Table C10
# Excerpt: as §2
# [9] = application rate 80 g/ha, Table A7c
# [10] = application rate 320 g/ha, Table A7b
# [11] = application rate 1280 g/ha, visual grading after ca. 3 weeks vs untreated controls, 100% = plants have died off, 0% = as control plants
# [12] = application rate 320 g/ha, Table A12b
# [13] = application rate 1280 g/ha, Table A12a
# [14] = application rate 320 g/ha, Table C5a
# [15] = application rate 80 g/ha, Table C5b
Compound,pre-emergence activity against ECHCG (ECHCG; application rate 1280 g/ha) [%],pre-emergence activity against LOLRI (LOLRI [1]; application rate 1280 g/ha) [%],pre-emergence activity against MATIN (MATIN [2]; application rate 1280 g/ha) [%],pre-emergence activity against STEME (STEME; application rate 1280 g/ha) [%],pre-emergence activity against POAAN (POAAN; [9]) [%],pre-emergence activity against POAAN (POAAN; [10]) [%],pre-emergence activity against POAAN (POAAN; [11]) [%],pre-emergence activity against DIGSA (DIGSA [3]; [12]) [%],pre-emergence activity against DIGSA (DIGSA [3]; [13]) [%],pre-emergence activity against DIGSA (DIGSA [4]; [14]) [%],pre-emergence activity against BRSNW in % (BRSNW; application rate 80 g/ha) [%],pre-emergence activity against BRSNW in % (BRSNW; application rate 320 g/ha) [%],post-emergence activity against ZEAMX in % (ZEAMX; application rate 80 g/ha) [%],post-emergence activity against ZEAMX in % (ZEAMX; application rate 320 g/ha) [%],post-emergence activity against TRZAS in % (TRZAS; application rate 80 g/ha) [%],pre-emergence activity against ECHCG (ECHCG; application rate 320 g/ha) [%],pre-emergence activity against LOLRI (LOLRI [1]; application rate 320 g/ha) [%],pre-emergence activity against SETVI (SETVI [5]; application rate 320 g/ha) [%],pre-emergence activity against SETVI (SETVI [5]; application rate 1280 g/ha) [%],pre-emergence activity against LOLRI (LOLRI [6]) [%],further results
Cn1cc(C(=O)N2CCCC2Cc2ccccc2F)c(COc2ccccc2)n1 (racemic) [Example I-006],90,90,90,90,100,100,100,90,100,100,0,10,10,20,20,,,,,,pre-emergence activity against STEME (STEME; application rate 320 g/ha): 90%; post-emergence activity against TRZAS in % (TRZAS; application rate 320 g/ha): 20%; post-emergence activity against GLXMA in % (GLXMA; application rate 80 g/ha): 0%
C=C(c1ccccc1F)C1CCCN1C(=O)c1cn(C)nc1COC (racemic) [Example I-023],100,100,90,90,100,100,100,90,90,100,0,0,0,20,,90,100,90,90,100,pre-emergence activity against MATIN (MATIN [2]; application rate 320 g/ha): 90%; pre-emergence activity against STEME (STEME; application rate 320 g/ha): 90%; pre-emergence activity against DIGSA (DIGSA [4]; [15]): 90%; pre-emergence activity against MATIN (MATIN [7]): 80%; pre-emergence activity against SETVI (SETVI [8]): 90%
CNC(=O)n1cc(C(=O)N2CCCC2Cc2ccccc2F)c(COC)n1 (racemic) [Example I-051],90,100,90,90,90,100,100,90,90,100,0,0,20,,,90,100,90,90,90,pre-emergence activity against ECHCG (ECHCG; application rate 80 g/ha): 90%; pre-emergence activity against LOLRI (LOLRI [1]; application rate 80 g/ha): 100%; pre-emergence activity against STEME (STEME; application rate 320 g/ha): 90%; pre-emergence activity against DIGSA (DIGSA [4]; [15]): 90%; pre-emergence activity against SETVI (SETVI [8]): 80%; post-emergence activity against GLXMA in % (GLXMA; application rate 320 g/ha): 10%
"COCc1c(C(=O)N2CCCC2Cc2ccccc2F)cnn1C (single isomer, unassigned) [Example I-157]",100,90,90,100,100,100,100,100,100,90,0,0,0,0,0,100,90,90,90,90,"pre-emergence activity against ECHCG (ECHCG; application rate 80 g/ha): 100%; pre-emergence activity against STEME (STEME; application rate 320 g/ha): 90%; pre-emergence activity against DIGSA (DIGSA [3]; application rate 80 g/ha, Table A12c): 100%; post-emergence activity against TRZAS in % (TRZAS; application rate 320 g/ha): 20%; post-emergence activity against GLXMA in % (GLXMA; application rate 320 g/ha): 0%"
Cn1cc(C(=O)N2CCCC2Cc2ccc(F)cc2F)c(COc2ccccc2)n1 (racemic) [Example I-008],90,,90,90,100,100,100,90,100,90,0,10,0,0,20,,,,90,,pre-emergence activity against SETVI (SETVI [8]): 90%; post-emergence activity against TRZAS in % (TRZAS; application rate 320 g/ha): 20%; post-emergence activity against GLXMA in % (GLXMA; application rate 320 g/ha): 0%
COCc1c(C(=O)N2CCCC2Cc2ccccc2Cl)cnn1C (racemic) [Example I-170],90,90,90,,100,100,100,,,,0,0,0,,20,90,90,90,90,90,pre-emergence activity against ECHCG (ECHCG; application rate 80 g/ha): 90%; pre-emergence activity against MATIN (MATIN [7]): 80%; post-emergence activity against GLXMA in % (GLXMA; application rate 80 g/ha): 10%
COCc1nn2c(c1C(=O)N1CCCC1Cc1ccccc1F)CCC2 (racemic) [Example I-022],100,100,90,,90,100,100,90,90,90,0,0,0,0,0,90,100,90,90,100,post-emergence activity against TRZAS in % (TRZAS; application rate 320 g/ha): 0%; post-emergence activity against GLXMA in % (GLXMA; application rate 320 g/ha): 0%
